Results: ChEMBL document CHEMBL1201862, “PubChem BioAssay data set” (2004)
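Test compounds were applied to cells in 96-well plates for 48 hours at 5 doses. GI50 = concentration required for 50% inhibition of growth.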 Active and inactive are the calls of the source. No stated cut-off is given here; in the data, active = GI50 up to about 1.1 µM and inactive = higher.

Experiments:
Assay in all cases: NCI anticancer screen, dose series, 48 h
DMS-273 = tested on: DMS-273
K562 = tested on: K562
MOLT-4 = tested on: MOLT-4
SNB-19 = tested on: SNB-19
SK-MEL-5 = tested on: SK-MEL-5
COLO 205 = tested on: COLO 205
SK-OV-3 = tested on: SK-OV-3
LXFL 529 = tested on: LXFL 529
UACC-257 = tested on: UACC-257
A549 = tested on: A549
XF498 = tested on: XF498
SNB-78 = tested on: SNB-78
TK-10 = tested on: TK-10
UACC-62 = tested on: UACC-62
RXF 631 = tested on: RXF 631
SW-620 = tested on: SW-620
SF-295 = tested on: SF-295
SNB-75 = tested on: SNB-75
OVCAR-3 = tested on: OVCAR-3
HOP-62 = tested on: HOP-62
SF-268 = tested on: SF-268
A498 = tested on: A498
DLD-1 = tested on: DLD-1
M14 = tested on: M14
M19-MEL = tested on: M19-MEL
SK-MEL-28 = tested on: SK-MEL-28
OVCAR-8 = tested on: OVCAR-8
IGROV-1 = tested on: IGROV-1
NCI-H522 = tested on: NCI-H522
DMS-114 = tested on: DMS-114
HCC 2998 = tested on: HCC 2998
CAKI-1 = tested on: CAKI-1
HT-29 = tested on: HT-29
SF-539 = tested on: SF-539
786-0 = tested on: 786-0
ACHN = tested on: ACHN
NCI-H23 = tested on: NCI-H23
LOX IMVI = tested on: LOX IMVI
EKVX = tested on: EKVX
HCT-15 = tested on: HCT-15
RXF 393 = tested on: RXF 393
HCT-116 = tested on: HCT-116
UO-31 = tested on: UO-31
KM-20L2 = tested on: KM-20L2
Malme-3M = tested on: Malme-3M
OVCAR-4 = tested on: OVCAR-4
SR = tested on: SR
RPMI-8226 = tested on: RPMI-8226
HL-60 = tested on: HL-60
SK-MEL-2 = tested on: SK-MEL-2
SN12C = tested on: SN12C
KM12 = tested on: KM12
HOP-92 = tested on: HOP-92
HOP-18 = tested on: HOP-18
U-251 = tested on: U-251
OVCAR-5 = tested on: OVCAR-5
NCI-H460 = tested on: NCI-H460
CCRF-CEM = tested on: CCRF-CEM
NCI-H226 = tested on: NCI-H226
MCF7 = tested on: MCF7

Compound: O=c1[nH]cc(OCC(F)(F)F)c(=O)[nH]1
- GI50 (DMS-273): > 100 µM (inactive)
- GI50 (K562): > 100 µM (inactive)
- GI50 (MOLT-4): > 100 µM (inactive)
- GI50 (SNB-19): > 100 µM (inactive)
- GI50 (SK-MEL-5): > 100 µM (inactive)
- GI50 (COLO 205): > 100 µM (inactive)
- GI50 (SK-OV-3): > 100 µM (inactive)
- GI50 (LXFL 529): > 100 µM (inactive)
- GI50 (UACC-257): > 100 µM (inactive)
- GI50 (A549): > 100 µM (inactive)
- GI50 (XF498): > 100 µM (inactive)
- GI50 (SNB-78): > 100 µM (inactive)
- GI50 (TK-10): > 100 µM (inactive)
- GI50 (UACC-62): > 100 µM (inactive)
- GI50 (RXF 631): > 100 µM (inactive)
- GI50 (SW-620): > 100 µM (inactive)
- GI50 (SF-295): > 100 µM (inactive)
- GI50 (SNB-75): > 100 µM (inactive)
- GI50 (OVCAR-3): > 100 µM (inactive)
- GI50 (HOP-62): > 100 µM (inactive)
- GI50 (SF-268): > 100 µM (inactive)
- GI50 (A498): > 100 µM (inactive)
- GI50 (DLD-1): > 100 µM (inactive)
- GI50 (M14): > 100 µM (inactive)
- GI50 (M19-MEL): > 100 µM (inactive)
- GI50 (SK-MEL-28): > 100 µM (inactive)
- GI50 (OVCAR-8): > 100 µM (inactive)
- GI50 (IGROV-1): > 100 µM (inactive)
- GI50 (NCI-H522): > 100 µM (inactive)
- GI50 (DMS-114): > 100 µM (inactive)
- GI50 (HCC 2998): > 100 µM (inactive)
- GI50 (CAKI-1): > 100 µM (inactive)
- GI50 (HT-29): > 100 µM (inactive)
- GI50 (SF-539): > 100 µM (inactive)
- GI50 (786-0): > 100 µM (inactive)
- GI50 (ACHN): > 100 µM (inactive)
- GI50 (NCI-H23): > 100 µM (inactive)
- GI50 (LOX IMVI): > 100 µM (inactive)
- GI50 (EKVX): > 100 µM (inactive)
- GI50 (HCT-15): > 100 µM
- GI50 (RXF 393): > 100 µM (inactive)
- GI50 (HCT-116): > 100 µM (inactive)
- GI50 (UO-31): > 100 µM (inactive)
- GI50 (KM-20L2): > 100 µM (inactive)
- GI50 (Malme-3M): > 100 µM (inactive)
- GI50 (OVCAR-4): > 100 µM (inactive)
- GI50 (SR): > 100 µM (inactive)
- GI50 (RPMI-8226): > 100 µM (inactive)
- GI50 (HL-60): > 100 µM (inactive)
- GI50 (SK-MEL-2): > 100 µM (inactive)
- GI50 (SN12C): > 100 µM (inactive)
- GI50 (KM12): > 100 µM (inactive)
- GI50 (HOP-92): > 100 µM (inactive)
- GI50 (HOP-18): > 100 µM (inactive)
- GI50 (U-251): > 100 µM (inactive)
- GI50 (OVCAR-5): > 100 µM (inactive)
- GI50 (NCI-H460): > 100 µM (inactive)
- GI50 (CCRF-CEM): > 100 µM (inactive)

Compound: CC1=NOC(=O)/C1=C/c1ccccc1O
- GI50 (DMS-273): > 100 µM (inactive)
- GI50 (K562): > 100 µM (inactive)
- GI50 (MOLT-4): > 100 µM (inactive)
- GI50 (SNB-19): > 100 µM (inactive)
- GI50 (SK-MEL-5): > 100 µM (inactive)
- GI50 (COLO 205): > 100 µM (inactive)
- GI50 (SK-OV-3): > 100 µM (inactive)
- GI50 (LXFL 529): > 100 µM (inactive)
- GI50 (UACC-257): > 100 µM (inactive)
- GI50 (A549): > 100 µM (inactive)
- GI50 (XF498): > 100 µM (inactive)
- GI50 (SNB-78): > 100 µM (inactive)
- GI50 (TK-10): > 100 µM (inactive)
- GI50 (UACC-62): > 100 µM (inactive)
- GI50 (RXF 631): > 100 µM (inactive)
- GI50 (SW-620): 20.4 µM (inactive)
- GI50 (NCI-H226): > 100 µM (inactive)
- GI50 (SF-295): > 100 µM (inactive)
- GI50 (SNB-75): > 100 µM (inactive)
- GI50 (OVCAR-3): > 100 µM (inactive)
- GI50 (HOP-62): > 100 µM (inactive)
- GI50 (SF-268): > 100 µM (inactive)
- GI50 (DLD-1): > 100 µM (inactive)
- GI50 (M14): > 100 µM (inactive)
- GI50 (M19-MEL): > 100 µM (inactive)
- GI50 (SK-MEL-28): > 100 µM (inactive)
- GI50 (OVCAR-8): > 100 µM (inactive)
- GI50 (IGROV-1): > 100 µM (inactive)
- GI50 (NCI-H522): > 100 µM (inactive)
- GI50 (DMS-114): > 100 µM (inactive)
- GI50 (HCC 2998): > 100 µM (inactive)
- GI50 (CAKI-1): > 100 µM (inactive)
- GI50 (HT-29): > 100 µM (inactive)
- GI50 (SF-539): > 100 µM (inactive)
- GI50 (786-0): > 100 µM (inactive)
- GI50 (ACHN): > 100 µM (inactive)
- GI50 (NCI-H23): > 100 µM (inactive)
- GI50 (LOX IMVI): > 100 µM (inactive)
- GI50 (EKVX): > 100 µM (inactive)
- GI50 (HCT-15): > 100 µM
- GI50 (HCT-116): > 100 µM (inactive)
- GI50 (UO-31): > 100 µM (inactive)
- GI50 (KM-20L2): > 100 µM (inactive)
- GI50 (Malme-3M): > 100 µM (inactive)
- GI50 (OVCAR-4): > 100 µM (inactive)
- GI50 (SR): > 100 µM (inactive)
- GI50 (HL-60): > 100 µM (inactive)
- GI50 (SK-MEL-2): > 100 µM (inactive)
- GI50 (SN12C): > 100 µM (inactive)
- GI50 (KM12): > 100 µM (inactive)
- GI50 (HOP-92): > 100 µM (inactive)
- GI50 (HOP-18): > 100 µM (inactive)
- GI50 (U-251): > 100 µM (inactive)
- GI50 (OVCAR-5): > 100 µM (inactive)
- GI50 (NCI-H460): > 100 µM (inactive)
- GI50 (CCRF-CEM): > 100 µM (inactive)

Compound: COc1cccc2c1C(=O)c1c(O)c3c(c(O)c1C2=O)C[C@@](O)(C(C)O)C[C@@H]3OC1CC(N)C(O)C(C)O1 (stereo partly drawn)
- GI50 (DMS-273): 0.569 µM (active)
- GI50 (K562): 1.12 µM (active)
- GI50 (MCF7): 0.738 µM (active)
- GI50 (MOLT-4): 0.105 µM (active)
- GI50 (SNB-19): 0.883 µM (active)
- GI50 (SK-MEL-5): 0.834 µM (active)
- GI50 (COLO 205): 1.41 µM (inactive)
- GI50 (SK-OV-3): 2.72 µM (inactive)
- GI50 (LXFL 529): 1.02 µM (active)
- GI50 (UACC-257): 1.42 µM (inactive)
- GI50 (A549): 0.946 µM (active)
- GI50 (XF498): 0.614 µM (active)
- GI50 (SNB-78): 1.88 µM (inactive)
- GI50 (TK-10): 2.5 µM (inactive)
- GI50 (UACC-62): 1.34 µM (inactive)
- GI50 (RXF 631): 2 µM (inactive)
- GI50 (SW-620): 1.05 µM (active)
- GI50 (NCI-H226): 0.607 µM (active)
- GI50 (SF-295): 1.26 µM (inactive)
- GI50 (SNB-75): 0.00982 µM (active)
- GI50 (OVCAR-3): 2.4 µM (inactive)
- GI50 (HOP-62): 0.861 µM (active)
- GI50 (SF-268): 1.05 µM (active)
- GI50 (A498): 2.18 µM (inactive)
- GI50 (DLD-1): 2.99 µM (inactive)
- GI50 (M14): 3.02 µM (inactive)
- GI50 (M19-MEL): 1.16 µM (inactive)
- GI50 (SK-MEL-28): 1.42 µM (inactive)
- GI50 (OVCAR-8): 1.14 µM (inactive)
- GI50 (IGROV-1): 2.2 µM (inactive)
- GI50 (NCI-H522): 0.57 µM (active)
- GI50 (DMS-114): 0.163 µM (active)
- GI50 (HCC 2998): 1.68 µM (inactive)
- GI50 (CAKI-1): 0.408 µM (active)
- GI50 (HT-29): 2.21 µM (inactive)
- GI50 (SF-539): 0.869 µM (active)
- GI50 (786-0): 0.644 µM (active)
- GI50 (ACHN): 1.51 µM (inactive)
- GI50 (NCI-H23): 0.553 µM (active)
- GI50 (LOX IMVI): 0.524 µM (active)
- GI50 (EKVX): 1.18 µM (inactive)
- GI50 (HCT-15): 8.28 µM
- GI50 (RXF 393): 1.47 µM (inactive)
- GI50 (HCT-116): 0.805 µM (active)
- GI50 (UO-31): 38.5 µM (inactive)
- GI50 (KM-20L2): 3.24 µM (inactive)
- GI50 (Malme-3M): 0.491 µM (active)
- GI50 (OVCAR-4): 4.99 µM (inactive)
- GI50 (SR): 0.16 µM (active)
- GI50 (HL-60): 0.171 µM (active)
- GI50 (SK-MEL-2): 1.41 µM (inactive)
- GI50 (SN12C): 0.993 µM (active)
- GI50 (KM12): 2.24 µM (inactive)
- GI50 (HOP-92): 0.502 µM (active)
- GI50 (HOP-18): 0.00497 µM (active)
- GI50 (U-251): 0.885 µM (active)
- GI50 (OVCAR-5): 3.3 µM (inactive)
- GI50 (NCI-H460): 0.329 µM (active)
- GI50 (CCRF-CEM): 0.148 µM (active)
